Results taken from patent publication US20260285846A1, “REV-ERB AGONISTS FOR TH17-MEDIATED INFLAMMATORY DISORDERS” (UNIVERSITY OF FLORID RESEARCH FOUNDATION, iNCORPORATED, priority 2021, published 2026).

molecular target: REV-ERBα LBD (Homo sapiens, UniProt P20393, DEL324-422); assay: biochemical; details: FRET assay; 6xHistag-REV-ERBα LBD with FITC-labeled SMRT corepressor peptide; read-out: REVERBα (Agonism of REV-ERBα, EC50)
Summary of the method: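 TR-FRET corepressor recruitment: 4 nM His-tagged human REV-ERBα LBD (residues 281-614 Δ324-422, or 381-579), 1 nM Tb-anti-His antibody and 400 nM FITC-SMRT peptide in pH 7.4 phosphate buffer with DTT; ligands in triplicate, 2 h at 4° C. 520/495 nm ratio fitted to sigmoidal dose-response for EC50.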

REV-ERBα LBD, sequence (P20393 with tags, fused parts or gaps DEL324-422): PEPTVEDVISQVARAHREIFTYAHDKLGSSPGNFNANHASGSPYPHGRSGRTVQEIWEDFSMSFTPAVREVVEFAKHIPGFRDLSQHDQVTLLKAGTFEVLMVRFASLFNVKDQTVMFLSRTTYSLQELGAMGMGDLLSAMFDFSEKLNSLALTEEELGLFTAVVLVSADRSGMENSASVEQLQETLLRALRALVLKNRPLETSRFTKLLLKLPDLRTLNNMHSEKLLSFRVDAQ
REV-ERBα LBD, sequence (Q9Y618 2335-2356 partner limits assumed): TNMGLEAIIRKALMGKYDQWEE

| Structure (SMILES) | EC50 [nM] |
| --- | --- |
| CC(NS(=O)(=O)C1CC1)c1cn(CC(C)(C)C)c2cc(-c3cnccc3C#N)c(F)cc12 (single isomer, unassigned) [Compound 33, (S or R) N-(1-(6-(4-cyanopyridin-3-yl)-5-fluoro-1-neopentyl-1H-indol-3-yl)ethyl)cyclopropanesulfonamide] | 100 to 1000 |
| CC(C)(C)Cn1cc([C@H](NS(=O)(=O)C2CC2)C(F)F)c2ccc(-c3c(C(F)(F)F)ccc[n+]3[O-])cc21 [Compound 106, (S)-2-(3-(1-(cyclopropanesulfonamido)-2,2-difluoroethyl)-1-neopentyl-1H-indol-6-yl)-3-(trifluoromethyl)pyridine 1-oxide] | 100 to 1000 |
| CC(C)(C)Cn1cc([C@H](NS(=O)(=O)C2CC2)C(F)F)c2cc(F)c(-c3c(C#N)ccnc3C(F)(F)F)cc21 [Compound 55, N-((1S)-1-(6-(4-cyano-2-(trifluoromethyl)pyridin-3-yl)-5-fluoro-1-neopentyl-1H-indol-3-yl)-2,2-difluoroethyl)cyclopropanesulfonamide] | < 100 |
| CC(C)(C)Cn1cc([C@H](NS(=O)(=O)C2CC2)C(F)F)c2cc(F)c(-c3ncccc3Cl)cc21 [Compound 90, (S)—N-(1-(6-(3-chloropyridin-2-yl)-5-fluoro-1-neopentyl-1H-indol-3-yl)-2,2-difluoroethyl)cyclopropanesulfonamide] | < 100 |
| CC(C)(C)Cn1cc([C@H](NS(=O)(=O)C2CC2)C(F)F)c2ccc(-c3ccc(F)cc3C(F)F)cc21 [Compound 105, (S)—N-(1-(6-(2-(difluoromethyl)-4-fluorophenyl)-1-neopentyl-1H-indol-3-yl)-2,2-difluoroethyl)cyclopropanesulfonamide] | < 100 |
| CC(C)(C)Cn1cc([C@H](NS(=O)(=O)C2CC2)C(F)F)c2ccc(-c3c(C#N)cccc3C(F)F)cc21 [Compound 103, (S)—N-(1-(6-(2-cyano-6-(difluoromethyl)phenyl)-1-neopentyl-1H-indol-3-yl)-2,2-difluoroethyl)cyclopropanesulfonamide] | < 100 |
| N#Cc1nccc(C(F)F)c1-c1nc2c(cc1F)c([C@H](NS(=O)(=O)C1CC1)C(F)F)cn2C1CCC1 [Compound 162, N-((1S)-1-(6-(2-cyano-4-(difluoromethyl)pyridin-3-yl)-1-cyclobutyl-5-fluoro-1H-pyrrolo[2,3-b]pyridin-3-yl)-2,2-difluoroethyl)cyclopropanesulfonamide] | < 100 |
| CC(NS(=O)(=O)C1CC1)c1cn(CC(C)(C)C)c2cc(-c3ncccc3C3CC3)c(F)cc12 (centres unmarked) [Compound 60, N-(1-(6-(3-cyclopropylpyridin-2-yl)-5-fluoro-1-neopentyl-1H-indol-3-yl)ethyl)cyclopropanesulfonamide] | < 100 |
| CN1CC(n2cc([C@H](NS(=O)(=O)C3CC3)C(F)F)c3cc(F)c(-c4ccc(F)cc4C(F)(F)F)cc32)C1 [Compound 168, (S)—N-(2,2-difluoro-1-(5-fluoro-6-(4-fluoro-2-(trifluoromethyl)phenyl)-1-(1-methylazetidin-3-yl)-1H-indol-3-yl)ethyl)cyclopropanesulfonamide] | 100 to 1000 |
| CC(C)(C)Cn1cc([C@H](NS(=O)(=O)C2CC2)C(F)F)c2cc(F)c(-c3ccc(C#N)nc3C(F)(F)F)cc21 [Compound 110, (S)—N-(1-(6-(6-cyano-2-(trifluoromethyl)pyridin-3-yl)-5-fluoro-1-neopentyl-1H-indol-3-yl)-2,2-difluoroethyl)cyclopropanesulfonamide] | < 100 |
| CC(C)(C)Cn1cc([C@H](NS(=O)(=O)C2CC2)C(F)F)c2ccc(-c3ncc(F)cc3Cl)cc21 [Compound 78, (S)—N-(1-(6-(3-chloro-5-fluoropyridin-2-yl)-1-neopentyl-1H-indol-3-yl)-2,2-difluoroethyl)cyclopropanesulfonamide] | < 100 |
| CC(NS(=O)(=O)C1CC1)c1cn(CC(C)(C)C)c2cc(-c3cccnc3C(F)(F)F)c(F)cc12 (single isomer, unassigned) [Compound 28, N-[1-[1-(2,2-dimethylpropyl)-5-fluoro-6-[2-(trifluoromethyl)-3-pyridyl]indol-3-yl]ethyl]cyclopropanesulfonamide] | < 100 |
| CC(C)(C)Cn1cc([C@H](NS(=O)(=O)C2CCC2)C(F)F)c2cc(F)c(-c3c(C(F)(F)F)ccnc3C#N)cc21 [Compound 135, N-((1S)-1-(6-(2-cyano-4-(trifluoromethyl)pyridin-3-yl)-5-fluoro-1-neopentyl-1H-indol-3-yl)-2,2-difluoroethyl)cyclobutanesulfonamide] | < 100 |
| Cc1cnc(C(F)(F)F)c(-c2nc3c(cc2F)c([C@H](NS(=O)(=O)C2CC2)C(F)F)cn3CC(C)(C)C)c1 [Compound 142, (S)—N-(2,2-difluoro-1-(5-fluoro-6-(5-methyl-2-(trifluoromethyl)pyridin-3-yl)-1-neopentyl-1H-pyrrolo[2,3-b]pyridin-3-yl)ethyl)cyclopropanesulfonamide] | < 100 |
| CC(NS(=O)(=O)C1CC1)c1cn(CC(C)(C)C)c2cc(-c3ncccc3OC(F)F)c(F)cc12 (centres unmarked) [Compound 61, N-(1-(6-(3-(difluoromethoxy)pyridin-2-yl)-5-fluoro-1-neopentyl-1H-indol-3-yl)ethyl)cyclopropanesulfonamide] | < 100 |

Continued, values first:

| EC50 [nM] | Structure (SMILES) |
| --- | --- |
| < 100 | CC(C)(C)Cn1cc([C@H](NS(=O)(=O)C2CC2)C(F)F)c2cc(F)c(-c3ccncc3C(F)(F)F)cc21 [Compound 114, (S)—N-(2,2-difluoro-1-(5-fluoro-1-neopentyl-6-(3-(trifluoromethyl)pyridin-4-yl)-1H-indol-3-yl)ethyl)cyclopropanesulfonamide] |
| < 100 | Cc1ccc(-c2cc3c(cc2F)c([C@H](NS(=O)(=O)C2CC2)C(F)F)cn3CC(C)(C)C)c(C(F)(F)F)n1 [Compound 139, (S)—N-(2,2-difluoro-1-(5-fluoro-6-(6-methyl-2-(trifluoromethyl)pyridin-3-yl)-1-neopentyl-1H-indol-3-yl)ethyl)cyclopropanesulfonamide] |
| < 100 | Cc1ncc(F)cc1-c1cc2c(cc1F)c(C(C)NS(=O)(=O)C1CC1)cn2CC(C)(C)C (centres unmarked) [Compound 66, N-(1-(5-fluoro-6-(5-fluoro-2-methylpyridin-3-yl)-1-neopentyl-1H-indol-3-yl)ethyl)cyclopropanesulfonamide] |
| < 100 | N#CC1CC(n2cc([C@H](NS(=O)(=O)C3CC3)C(F)F)c3cc(F)c(-c4cc(F)cnc4C(F)(F)F)cc32)C1 (stereo partly drawn) [Compound 151, (S)—N-(1-(1-(3-cyanocyclobutyl)-5-fluoro-6-(5-fluoro-2-(trifluoromethyl)pyridin-3-yl)-1H-indol-3-yl)-2,2-difluoroethyl)cyclopropanesulfonamide] |
| < 100 | CN(C)S(=O)(=O)N[C@@H](c1cn(CC(C)(C)C)c2cc(-c3nccnc3C(F)(F)F)ccc12)C(F)F [Compound 51] |
| < 100 | CC(C)(C)Cn1cc([C@H](NS(=O)(=O)C2CC2)C(F)F)c2cc(F)c(-c3cncnc3C(F)(F)F)cc21 [Compound 112, (S)—N-(2,2-difluoro-1-(5-fluoro-1-neopentyl-6-(4-(trifluoromethyl)pyrimidin-5-yl)-1H-indol-3-yl)ethyl)cyclopropanesulfonamide] |
| < 100 | CC(C)(C)Cn1cc([C@H](NS(=O)(=O)C2CC2)C(F)F)c2ccc(-c3ncccc3C#N)cc21 [Compound 40, (S)—N-(1-(6-(3-cyanopyridin-2-yl)-1-neopentyl-1H-indol-3-yl)-2,2-difluoroethyl)cyclopropanesulfonamide] |
| < 100 | CC(C)(C)Cn1cc([C@H](NS(=O)(=O)N2CCC2)C(F)F)c2cc(F)c(-c3ccccc3C(F)(F)F)cc21 [Compound 31, (S)—N-(2,2-difluoro-1-(5-fluoro-1-neopentyl-6-(2-(trifluoromethyl)phenyl)-1H-indol-3-yl)ethyl)azetidine-1-sulfonamide] |
| < 100 | CC(C)(C)Cn1cc([C@H](NS(=O)(=O)C2CC2)C(F)F)c2cc(F)c(-c3cccnc3C(F)F)cc21 [Compound 97, (S)—N-(1-(6-(2-(difluoromethyl)pyridin-3-yl)-5-fluoro-1-neopentyl-1H-indol-3-yl)-2,2-difluoroethyl)cyclopropanesulfonamide] |
| < 100 | CC(C)(C)Cn1cc([C@H](NS(=O)(=O)C2CCC2)C(F)F)c2cc(F)c(-c3cc(F)cnc3C(F)(F)F)cc21 [Compound 137, (S)—N-(2,2-difluoro-1-(5-fluoro-6-(5-fluoro-2-(trifluoromethyl)pyridin-3-yl)-1-neopentyl-1H-indol-3-yl)ethyl)cyclobutanesulfonamide] |
| < 100 | CC(C)(C)Cn1cc([C@H](NS(=O)(=O)C2CC2)C(F)F)c2ccc(-c3c(C(F)(F)F)ccnc3C#N)cc21 [Compound 82, (S)—N-(1-(6-(2-cyano-4-(trifluoromethyl)pyridin-3-yl)-1-neopentyl-1H-indol-3-yl)-2,2-difluoroethyl)cyclopropanesulfonamide] |
| < 100 | CC(C)(C)Cn1cc([C@H](NS(=O)(=O)C2CC2)C(F)F)c2ccc(-c3ncc(F)cc3C#N)cc21 [Compound 88, (S)—N-(1-(6-(3-cyano-5-fluoropyridin-2-yl)-1-neopentyl-1H-indol-3-yl)-2,2-difluoroethyl)cyclopropanesulfonamide] |
| < 100 | N#Cc1nccc(C(F)F)c1-c1cc2c(cc1F)c([C@H](NS(=O)(=O)C1CC1)C(F)F)cn2C1CCC1 [Compound 161, N-((1S)-1-(6-(2-cyano-4-(difluoromethyl)pyridin-3-yl)-1-cyclobutyl-5-fluoro-1H-indol-3-yl)-2,2-difluoroethyl)cyclopropanesulfonamide] |
| < 100 | CC(NS(=O)(=O)C1CC1)c1cn(CC(C)(C)C)c2cc(-c3cc(F)cnc3C#N)c(F)cc12 (centres unmarked) [Compound 67, N-(1-(6-(2-cyano-5-fluoropyridin-3-yl)-5-fluoro-1-neopentyl-1H-indol-3-yl)ethyl)cyclopropanesulfonamide] |
